Test results published in ChEMBL document CHEMBL1201862, “PubChem BioAssay data set” (2004).
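Grown in 96-well plates, cells were treated for 48 hours with each compound at five concentrations. Insufficient inhibition: endpoint recorded as highest concentration tested. GI50: concentration for 50% inhibition of growth.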 The source made the active and inactive calls. Rule as the data show it: active = GI50 up to about 1.1 µM and inactive = higher.

Legend:
Test in all cases: DTP human tumour cell line panel, 48 h
[1] = system: A498
[2] = system: DMS-114
[3] = system: HOP-18
[4] = system: SR
[5] = system: RXF 631
[6] = system: PC-3
[7] = system: MDA-MB-231
[8] = system: Hs-578T

Question: Which results are given for `Cc1c2cnccc2c(C)c2c1c1ccccc1n2CCCCCCNCc1ccccc1`?
Answer: GI50 [1]: 2.11 µM (inactive); GI50 [2]: 1.83 µM (inactive); GI50 [3]: 0.547 µM (active)

Question: How did the GI50 [4] turn out when `O=C1C(Cl)N(c2ccccc2)C1c1c[nH]c2ccccc12` (configuration not stated) was run?
Answer: > 100 µM (inactive)

Question: And the GI50 [2]?
Answer: > 100 µM (inactive)

Question: Which GI50 [2] does the source give for `c1ccc2cc3n[se]nc3cc2c1` here?
Answer: > 100 µM (inactive)

Question: And the GI50 [5]?
Answer: 10.4 µM (inactive)

Question: What about the GI50 [3] of the same compound?
Answer: < 0.01 µM (active)

Question: Which GI50 [6] does the source give for `COC(OC)C1OC(CO)C(n2cc(F)c(=O)[nH]c2=O)C1O` (configuration not stated) here?
Answer: > 100 µM (inactive)

Question: What about the GI50 [1] of the same compound?
Answer: > 100 µM (inactive)

Question: What about the GI50 [7] of the same compound?
Answer: > 100 µM (inactive)

Question: What about the GI50 [8] of the same compound?
Answer: > 100 µM (inactive)

Question: How did the GI50 [6] turn out when `COc1ccc2c(c1)CC1Cc3ccccc3CCN1C2` (configuration not stated) was run?
Answer: 25.9 µM (inactive)

Question: And the GI50 [4]?
Answer: 65.8 µM (inactive)

Question: What about the GI50 [7] of the same compound?
Answer: 6.65 µM (inactive)

Question: And the GI50 [8]?
Answer: 41.2 µM (inactive)

Question: `COc1nc2ccc(CNc3ccc(C(=O)NC(CCC(=O)O)C(=O)O)cc3)cc2nc1OC` (configuration not stated) was tested. Which GI50 [6] did it give?
Answer: 44.6 µM (inactive)

Question: And the GI50 [1]?
Answer: > 100 µM (inactive)

Question: And the GI50 [4]?
Answer: > 100 µM (inactive)

Question: What about the GI50 [7] of the same compound?
Answer: > 100 µM (inactive)

Question: And the GI50 [8]?
Answer: > 100 µM (inactive)

Question: `C/C(=C1/N=C(c2cc([N+](=O)[O-])ccc2Cl)N(c2ccc(Br)cc2)C1=O)c1cc2ccccc2oc1=O` was tested. Which GI50 [1] did it give?
Answer: 20.7 µM (inactive)

Question: And the GI50 [4]?
Answer: 14.9 µM (inactive)

Question: What about the GI50 [2] of the same compound?
Answer: 10.1 µM (inactive)

Question: What about the GI50 [3] of the same compound?
Answer: > 100 µM (inactive)

Question: With `O=C(O)c1cc2sc(C(=O)O)cc2s1` as the compound, how does the GI50 [1] read?
Answer: > 100 µM (inactive)

Question: And the GI50 [4]?
Answer: > 100 µM (inactive)

Question: And the GI50 [2]?
Answer: > 100 µM (inactive)

Question: `O=c1oc2ccccc2n1P(=O)(n1c(=O)oc2ccccc21)n1c(=O)oc2ccccc21` was tested. Which GI50 [1] did it give?
Answer: > 100 µM (inactive)

Question: What about the GI50 [4] of the same compound?
Answer: > 100 µM (inactive)

Question: What about the GI50 [2] of the same compound?
Answer: > 100 µM (inactive)

Question: And the GI50 [5]?
Answer: > 100 µM (inactive)

Question: Which GI50 [4] does the source give for `O=C1OC2(OC2c2ccc(Cl)cc2)c2ccccc21` (configuration not stated) here?
Answer: > 100 µM (inactive)

Question: What about the GI50 [2] of the same compound?
Answer: 64.7 µM (inactive)

Question: Which GI50 [6] does the source give for `C=CCP(=O)(CC=C)C(Cl)Cl` here?
Answer: > 100 µM (inactive)

Question: And the GI50 [4]?
Answer: > 100 µM (inactive)

Question: What about the GI50 [7] of the same compound?
Answer: > 100 µM (inactive)

Question: What about the GI50 [8] of the same compound?
Answer: > 100 µM (inactive)

Question: With `O=[N+]([O-])C(=C/c1ccccc1)/C(=C\c1ccccc1)[N+](=O)[O-]` as the compound, how does the GI50 [6] read?
Answer: 19.3 µM (inactive)

Question: What about the GI50 [7] of the same compound?
Answer: 13.2 µM (inactive)

Question: What about the GI50 [8] of the same compound?
Answer: 56.2 µM (inactive)

Question: `COc1cc2c(cc1OC)-c1cc3ccccc3c(=O)n1CC2` was tested. Which GI50 [6] did it give?
Answer: 2.68 µM (inactive)

Question: What about the GI50 [4] of the same compound?
Answer: 14.3 µM (inactive)

Question: What about the GI50 [7] of the same compound?
Answer: 2.17 µM (inactive)

Question: And the GI50 [8]?
Answer: 11.4 µM (inactive)

Question: `c1ccc(/N=C2\SC3=NCCN3\C2=N/c2ccccc2)cc1` was tested. Which GI50 [6] did it give?
Answer: 13.1 µM (inactive)

Question: And the GI50 [1]?
Answer: 19.8 µM (inactive)

Question: And the GI50 [4]?
Answer: 21.4 µM (inactive)

Question: What about the GI50 [7] of the same compound?
Answer: 22.9 µM (inactive)

Question: And the GI50 [8]?
Answer: 36.9 µM (inactive)

Question: With `NC1(C(=O)O)CCCC1` [CYCLOLEUCINE] as the compound, how does the GI50 [2] read?
Answer: > 625 µM (inactive)

Question: What about the GI50 [3] of the same compound?
Answer: > 625 µM (inactive)

Question: Which results are given for `Nc1n[nH]c2nc3ccccc3nc12` [QUINOXALINE1]?
Answer: GI50 [6]: > 100 µM (inactive); GI50 [1]: 33.7 µM (inactive); GI50 [4]: 20 µM (inactive); GI50 [7]: > 100 µM (inactive); GI50 [8]: 39 µM (inactive)
